{
  "source": "patent US9708305B2",
  "about": "“Substituted 1,2,3,4-tetrahydroisoquinoline derivatives for the treatment of hormone-dependent diseases” (UNIVERSITÉ LAVAL, priority 2013, dated 2017)",
  "key": {"[1]": {"tested_on": "alkaline phosphatase activity in Saos-2 cells", "assay": "Alkaline phosphatase assay (Saos-2 cells), phenol library", "format": "cell-based", "conditions": "1 nM; control (no treatment) fixed at 100%", "description": "We also investigated the effect of selected phenol derivatives on alkaline phosphatase activity in Saos-2 cells (FIG. 13B).\nSaos-2 cells were used similarly as reported in the cell proliferation assay. The cells were seeded at a density of 2 000 cells/well and treated for 3 days with each compound to be tested. The alkaline phosphatase (ALP) activity was measured using the Sensolyte® pNPP Alkaline Phosphatase Assay Kit *Colorimetric* (AnaSpec, Freemont, Calif.) following the manufacturer's protocol. Briefly, after three days of treatment, the cells were washed twice with washing buffer (provided with the kit) and lysed with 0.2% Triton X-100. The cell lysates were centrifuged and the supernatants were used to determine ALP activity. The supernatants were deposed in a 96-well plate and incubated for 30 minutes with a p-nitrophenyl phosphate solution (provided with the kit). The absorbance at 405 nm was measured with a Thermo max microplate reader (Molecular Devices, Sunnyvale, Calif.). The control (culture media+DMSO) is set to 100% of alkaline phosphatase activity."}, "MCF-7 (ER+) cells": {"tested_on": "MCF-7 (ER+) cells", "assay": "Proliferative (estrogenic) activity on MCF-7 (ER+) cells", "format": "cell-based", "conditions": "7 days; for proliferation of MCF-7 (ER+) cells: 1 μM, control 100%", "description": "The next step was to determine the presence or absence of estrogenic activity. To do so, cell proliferative assays were carried out on MCF-7 cells. […] Phenols of the corresponding sulfamate library 3-EO and 4-EO are referred to as library 3′-EO and library 4′-EO, respectively.\nThis cell assay was carried out according to a procedure previously described to determine the estrogenic activity of enzyme inhibitors on the growth of estrogen-sensitive MCF-7 cells.^77 All chemicals tested were first dissolved in DMSO and subsequent dilutions were done in the proper cell culture media. The final concentration of DMSO in the culture medium was 0.1% or less. 3-(4,5-dimethylthiazol-2-yl)-5-(3-carboxymethoxyphenyl)-2-(4-sulfophenyl)-2-H-tetrazolium (MTS) was used as an indirect colorimetric measurement of cell proliferation according to the manufacturer's instructions (Promega, Madison, Wis.). At the end of the treatments, 20 μL of MTS solution was added to each well (100 μL) and the MCF-7 cells were incubated 4 h at 37° C. The absorbance at 490 nm was then measured with a Thermo max microplate reader (Molecular Devices, Sunnyvale, Calif.). The control (culture media+DMSO) is set to 100% of cell proliferation."}, "T-47D cells [2]": {"tested_on": "T-47D cells", "assay": "T-47D cell proliferation (estrogenicity / cytotoxicity), MTS", "format": "cell-based", "description": "The library of phenolic compounds described above was tested on estrogen-sensitive breast cancer T-47D cells.\nIn Table 1, cell proliferation of control cells is set to 100%. Results are expressed as mean±SD of one experiment in triplicate.\n(§1) CellTitter 96® Aqueous One Solution Cell Proliferation Assay was used as an indirect colorimetric measurement of cell proliferation according to the manufacturer's instructions. Briefly, after the treatments, 20 μL of MTS solution was added to each well (100 μL) of the plates and incubated at 37° C. for 2 h (Saos-2) or 4 h (T-47D). The absorbance at 490 nm was then measured with a Thermo max microplate reader (Molecular Devices, Sunnyvale, Calif.). The control (culture media+DMSO) is set to 100% of cell proliferation.\n(§2) The cells were plated in 96-well plates at a density of 3 000 cells/well and allowed to attach for 48 h. After this pre-incubation, the inhibitors and the reference compounds diluted in fresh culture media were added to the wells and replaced every 2 days for 7 days of treatment."}, "steroid sulfatase (STS)": {"target": "T1, steroid sulfatase (STS) (Homo sapiens, UniProt P08842)", "T1 construct": "expressed in transfected cells; host or cells: HEK-293 cells stably transfected with STS (G418 selection), obtained from Dr. Van Luu-The; used as freeze-thaw homogenate", "T1 sequence (P08842 22-583)": "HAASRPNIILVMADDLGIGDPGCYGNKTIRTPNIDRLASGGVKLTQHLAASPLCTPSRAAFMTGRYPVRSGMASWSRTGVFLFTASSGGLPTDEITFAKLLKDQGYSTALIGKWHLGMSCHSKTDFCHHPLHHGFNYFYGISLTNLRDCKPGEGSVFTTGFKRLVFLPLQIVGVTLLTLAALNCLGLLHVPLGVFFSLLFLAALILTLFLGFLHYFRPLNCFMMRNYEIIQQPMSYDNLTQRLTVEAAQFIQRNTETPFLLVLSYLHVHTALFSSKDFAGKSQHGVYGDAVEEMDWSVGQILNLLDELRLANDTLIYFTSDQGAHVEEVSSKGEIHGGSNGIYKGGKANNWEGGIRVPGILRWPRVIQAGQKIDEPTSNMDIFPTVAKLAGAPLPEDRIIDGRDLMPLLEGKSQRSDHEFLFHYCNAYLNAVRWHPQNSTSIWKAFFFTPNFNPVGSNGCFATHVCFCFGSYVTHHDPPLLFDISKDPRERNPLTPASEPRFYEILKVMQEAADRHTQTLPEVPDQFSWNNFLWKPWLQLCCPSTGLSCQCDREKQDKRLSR", "assay": "Steroid sulfatase (STS) inhibition, [3H]-E1S to [3H]-E1, homogenate of transfected HEK-293 cells", "format": "biochemical", "description": "To test STS inhibition, we used homogenated HEK-293 cells overexpressing STS and evaluated the capacity of our compounds to inhibit the conversion of [^3H]-E1S into [^3H]-E1. […] This is outlined in FIG. 5.\nAn enzymatic assay previously described was used for the inhibition of the transformation of estrone sulfate (E1S) to estrone (E1) by STS.^72 Briefly, the transfected HEK-293 cells were homogenized by repeated (5 times) cycles of freezing (−80° C.) and thawing on ice (4° C.). The homogenates were then incubated for 2 h at 37° C. (shaking water bath) with or without inhibitors (0.01 μM-1 μM) in presence of [^3H]-E1S (9 nM), adjusted to 1 μM with E1S, in a Tris-acetate buffer (pH 7.4) containing 5 mM EDTA and 10% glycerol. After the incubation, 1 mL of xylene was added to each tube and the solutions were then centrifuged at 3000 rpm for 20 min to separate the organic ([^3H]-E1) and aqueous ([^3H]-E1S) phases. Once 500 μL of each phase was added to 10 mL of Biodegradable Counting Scintillant, the radioactivity of samples was recorded using a Wallac 1411 Liquid Scintillation Counter. The percentage of inhibition was determined by comparison with the control (buffer+homogenate+[^3H]-E1S) which was set to 0% of inhibition. IC50 value was obtained using GraphPad Prism 5 (GraphPad Software, La Jolla, Calif.)."}, "T-47D cells [3]": {"tested_on": "T-47D cells", "assay": "T-47D cell proliferation in presence of E2 (antiestrogenicity)", "format": "cell-based", "description": "as §1, §2"}, "[4]": {"tested_on": "osteoblast-like Saos-2 cells", "assay": "Saos-2 cell proliferation, MTS", "format": "cell-based", "conditions": "for Bone cells Saos-2 (ER+) SERM effect Proliferative activity (%): in percentage of control (100%; 0.1 nM of estradiol)", "from_the_text": "First, we wanted to evaluate their effect on cell proliferation. […] This is outlined in FIG. 8A. […] One of the main roles of osteoblasts in bone tissue is to construct a calcified extracellular matrix.^15 As such, bone formation is not principally due to osteoblasts proliferation but rather osteoblasts maturation into mature osteocytes. […] This is outlined in FIG. 8B.\nas §1\nSaos-2 cells were suspended in phenol-red free McCoy's 5A medium supplemented with 10% charcoal-stripped FBS, penicillin (100 IU/mL) and streptomycin (100 μg/mL). The cells were seeded in 96-well plates at a density of 3 000 cells/well and allowed to attach. After 24 h, the inhibitors and the reference compounds diluted in fresh culture media were added to the wells and replaced every 2 days for 7 days of treatment."}, "[5]": {"tested_on": "alkaline phosphatase (ALP) activity in Saos-2 cells", "assay": "Alkaline phosphatase (ALP) activity in Saos-2 cells", "format": "cell-based", "description": "ALP is an enzyme that releases inorganic phosphate from different intracellular substrates such as pyrophosphate and pyridoxal 5′-phosphate.^63 The inorganic phosphate is used in the formation of hydroxyapatite crystals which are then inserted in the extracellular protein scaffold to form the solid part of bone tissue.\nSaos-2 cells were treated similarly as reported in the cell proliferation assay. The cells were seeded at a density of 2 000 cells/well and were treated with the inhibitors and the reference compounds for 3 days. The alkaline phosphatase (ALP) activity was measured using Sensolyte® pNPP Alkaline Phosphatase Assay Kit *Colorimetric* (AnaSpec, Fremont, Calif.) following the manufacturer's protocol. Briefly, after the 3 days of treatment, the cells were washed twice with washing buffer (provided with the kit) and lysed with 0.2% Triton X-100. The cell lysates were centrifuged and the supernatants were used to determine the ALP activity. The supernatants were deposed in a 96-well plate and incubated 30 min with a p-nitrophenyl phosphate solution (provided with the kit). The absorbance at 405 nm was measured with a Thermo max microplate reader (Molecular Devices, Sunnyvale, Calif.). The control (culture media+DMSO) is set to 100% of alkaline phosphatase activity."}},
  "data": [
    {"smiles": "CCN(Cc1ccc(F)cc1)Cc1ccc(C(=O)N2CCc3ccc(O)cc3C2)cc1", "note": "[3′-EO-17]", "values": [
      {"measurement": "ALP activity in Saos-2 cells", "setting": "[1]", "value": 152, "unit": "%"}
    ]},
    {"smiles": "O=C(c1ccc(CN(Cc2ccccc2)Cc2ccco2)cc1)N1CCc2ccc(O)cc2C1", "note": "[3′-EO-11]", "values": [
      {"measurement": "stimulation of MCF-7 cell growth", "setting": "MCF-7 (ER+) cells; 0.01 μM, 0.1 μM and 1 μM", "value": "did not stimulate"}
    ]},
    {"smiles": "Cc1ccc(CN(Cc2ccc(C(=O)N3CCc4ccc(O)cc4C3)cc2)Cc2ccco2)s1", "note": "[Compound 29, [4-({(furan-2-ylmethyl)[(5-methylthiophen-2-yl)methyl]amino}methyl)phenyl](7-hydroxy-3,4-dihydroisoquinolin-2(1H)-yl)methanone]", "values": [
      {"measurement": "estrogenicity / cytotoxicity on T-47D cells", "setting": "T-47D cells [2]; 0.01 μM, 0.1 μM and 1 μM", "value": "neither estrogenicity nor cytotoxicity"},
      {"measurement": "Breast cancer cells T-47D (ER+) Agonist activity (%)", "setting": "T-47D cells [2]; 1 μM, in % of control (100%; 0.1 nM of estradiol)", "value": 0, "unit": "%"},
      {"measurement": "activity at 0.01 µM", "setting": "T-47D cells [2]; Homo sapiens, T47D, 0.01 μM, control cells set to 100%, mean±SD", "value": "97.1 ± 2.6", "unit": "%"},
      {"measurement": "activity at 0.1 µM", "setting": "T-47D cells [2]; Homo sapiens, T47D, 0.1 μM, control cells set to 100%, mean±SD", "value": "103 ± 1.8", "unit": "%"},
      {"measurement": "activity at 1 µM", "setting": "T-47D cells [2]; Homo sapiens, T47D, 1 μM, control cells set to 100%, mean±SD", "value": "96.8 ± 2.2", "unit": "%"},
      {"measurement": "inhibition of STS", "setting": "steroid sulfatase (STS); homogenates of transfected HEK-293 cells", "value": "no significant inhibition"},
      {"measurement": "IC50", "setting": "steroid sulfatase (STS); transformation of E1S into E1 in homogenate of HEK-293 cells transfected with STS, read-out: Steroid Sulfatase Inhibition IC50", "value": "> 1000", "unit": "nM"},
      {"measurement": "blockade of the stimulation induced by E2 in T-47D cells", "setting": "T-47D cells [3]; 5 μM, E2 0.1 nM", "value": "approximately 84%"},
      {"measurement": "inhibition at 1 µM", "setting": "T-47D cells [3]; Homo sapiens, T47D, read-out: Breast cancer cells T-47D (ER+) Antagonist activity (%)", "value": 46, "unit": "%"},
      {"measurement": "Saos-2 cell proliferation, dose response", "setting": "[4]; 1 nM to 1 μM, 7 days", "value": "apparent dose-dependent response"},
      {"measurement": "Bone cells Saos-2 (ER+) SERM effect Proliferative activity (%)", "setting": "[4]; 0.1 μM", "value": 175, "unit": "%"},
      {"measurement": "Saos-2 cell proliferation", "setting": "[4]; 1 μM, 7 days, control 100%", "value": "~150", "unit": "%"},
      {"measurement": "Bone cells Saos-2 (ER+) SERM effect Proliferative activity (%)", "setting": "[4]; 1 μM", "value": 250, "unit": "%"},
      {"measurement": "Bone cells Saos-2 (ER+) SERM effect Alkaline phosphatase activity (%)", "setting": "[5]; 0.1 nM", "value": 114, "unit": "%"},
      {"measurement": "stimulation of ALP activity in presence of ICI-164,384 or MPP + PHTPP", "setting": "[5]; 0.1 nM compound, antagonists 1 μM, 3 days", "value": "completely blocked the stimulation"},
      {"measurement": "ALP activity in Saos-2 cells", "setting": "[5]; 0.1 nM, 3 days, control 100%", "value": 138, "unit": "%"}
    ]},
    {"smiles": "CN(C)CCCN(Cc1ccccc1)Cc1ccc(C(=O)N2CCc3ccc(O)cc3C2)cc1", "note": "[3′-EO-05]", "values": [
      {"measurement": "proliferation of MCF-7 (ER+) cells", "setting": "MCF-7 (ER+) cells", "value": 126, "unit": "%"}
    ]},
    {"smiles": "CCN(Cc1ccc(C(=O)N2CCc3ccc(O)cc3C2)cc1)Cc1cccc(Br)c1", "note": "[3′-EO-12]", "values": [
      {"measurement": "proliferation of MCF-7 (ER+) cells", "setting": "MCF-7 (ER+) cells", "value": 118, "unit": "%"}
    ]},
    {"smiles": "CCN(Cc1ccc(Br)cc1)Cc1ccc(C(=O)N2CCc3ccc(O)cc3C2)cc1", "note": "[3′-EO-13]", "values": [
      {"measurement": "proliferation of MCF-7 (ER+) cells", "setting": "MCF-7 (ER+) cells", "value": 177, "unit": "%"}
    ]},
    {"smiles": "O=C(c1ccc(CN(CCO)Cc2ccccc2)cc1)N1CCc2ccc(O)cc2C1", "note": "[3′-EO-02]", "values": [
      {"measurement": "proliferation of MCF-7 (ER+) cells", "setting": "MCF-7 (ER+) cells", "value": 135, "unit": "%"}
    ]},
    {"smiles": "CC/C(=C(\\c1ccccc1)c1ccc(OCCN(C)C)cc1)c1ccccc1", "note": "[tamoxifen, reference compound]", "values": [
      {"measurement": "ALP activity in Saos-2 cells", "setting": "[1]", "value": 143, "unit": "%"}
    ]}
  ]
}
